For experiment [1], the target named is Human Full Length PARG (Homo sapiens (Human), UniProt Q86W56). Description: PARG enzyme assay (TR-FRET). It counts as biochemical. In general terms: In TR-FRET formats the signal depends on donor and acceptor labels being close together.
The test system of experiment [2] is PARG in HeLa cell line. The experiment in a line: PARG cell assay (PAR chain immunofluorescence after MMS). It counts as cell-based. The settings on record: HeLa cells. The gist of the method:
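Nuclear poly(ADP-ribose) chains in HeLa cells are read by indirect immunofluorescence with a mouse anti-PAR antibody applied overnight at 4° C after fixing and permeabilising. Cells get 1 h of compound, then 50 μg/mL MMS (final) for another hour. PAR persisting at that point reflects PARG inhibition.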

The mark [3] stands for this setting: Homo sapiens, MMS treatment, read-out: PARG Cell IC50.
[4] abbreviates: MMS treatment, read-out: PARG Cell IC50.
The mark [5] stands for this setting: read-out: PARG Biochem IC50 Geomean.
Where [6] appears, read: Homo sapiens, MMS 50 μg/mL, read-out: PARG Cell IC50 Geomean.
Where [7] appears, read: MMS 50 μg/mL, read-out: PARG Cell IC50 Geomean.

Read-outs that look alike come from different tables or passages of the source.

Drawing on patent US10239843B2 (CANCER RESEARCH TECHNOLOGY LIMITED, priority 2014, dated 2019), this text covers IC50 for 13 compounds.

Sequence of Human Full Length PARG (Q86W56 whole entry): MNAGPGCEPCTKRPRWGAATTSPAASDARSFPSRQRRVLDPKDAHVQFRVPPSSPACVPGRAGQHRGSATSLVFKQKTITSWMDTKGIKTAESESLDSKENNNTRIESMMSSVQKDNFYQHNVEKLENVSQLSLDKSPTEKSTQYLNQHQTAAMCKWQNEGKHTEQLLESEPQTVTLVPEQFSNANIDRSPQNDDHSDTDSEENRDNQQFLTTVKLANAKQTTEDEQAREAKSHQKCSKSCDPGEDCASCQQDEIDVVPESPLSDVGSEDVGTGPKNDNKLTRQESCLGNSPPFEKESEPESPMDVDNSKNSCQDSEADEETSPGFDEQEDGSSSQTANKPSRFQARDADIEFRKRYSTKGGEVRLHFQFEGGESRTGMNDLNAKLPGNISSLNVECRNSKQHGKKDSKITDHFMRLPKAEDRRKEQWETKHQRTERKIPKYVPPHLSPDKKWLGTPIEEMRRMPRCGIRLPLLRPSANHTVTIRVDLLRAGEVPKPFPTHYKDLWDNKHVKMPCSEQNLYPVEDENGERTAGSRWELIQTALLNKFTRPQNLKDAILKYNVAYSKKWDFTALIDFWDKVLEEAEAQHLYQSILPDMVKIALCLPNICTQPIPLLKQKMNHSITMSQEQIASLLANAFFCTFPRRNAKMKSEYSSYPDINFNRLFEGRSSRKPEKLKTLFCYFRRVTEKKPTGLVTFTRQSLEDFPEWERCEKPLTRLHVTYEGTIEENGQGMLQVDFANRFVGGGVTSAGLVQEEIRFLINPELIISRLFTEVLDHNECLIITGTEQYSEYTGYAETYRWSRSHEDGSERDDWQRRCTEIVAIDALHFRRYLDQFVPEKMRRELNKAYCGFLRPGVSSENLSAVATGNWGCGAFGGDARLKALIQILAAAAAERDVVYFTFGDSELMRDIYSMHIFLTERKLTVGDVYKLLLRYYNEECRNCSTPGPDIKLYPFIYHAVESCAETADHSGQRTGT

By IC50 is commonly meant the midpoint of a concentration-inhibition curve. Take `Cc1cc(Cn2c(=O)c3cc(S(=O)(=O)NC4(C)CC4)ccc3n(CCCC(C)C)c2=O)on1` [Example 474, 1-Isohexyl-N-(1-methylcyclopropyl)-3-[(3-methylisoxazol-5-yl)methyl]-2,4-dioxo-quinazoline-6-sulfonamide]: the IC50 in experiment [1] (read-out: PARG Biochem IC50) was determined as 331 nM; in experiment [2] (setting [3]), 548 nM.

As for `Cn1cc(Cn2c(=O)c3cc(S(=O)(=O)NC4(CF)CC4)ccc3n(CCn3cccn3)c2=O)cn1` [Example 560, N-[1-(Fluoromethyl)cyclopropyl]-3-[(1-methylpyrazol-4-yl)methyl]-2,4-dioxo-1-(2-pyrazol-1-ylethyl)quinazoline-6-sulfonamide], the values for the half-inhibitory concentration (IC50) in experiment [1] (read-out: PARG Biochem IC50) and in experiment [2] (setting [4]) were 530 nM and 810 nM, respectively.

Take `Cc1cc(Cn2nc(CC3CC3)c3ccc(S(=O)(=O)NC4(C)CC4)cc3c2=O)on1` [Example 318]: the half-inhibitory concentration (IC50) was 352 nM in experiment [1] (setting [5]) and 319 nM in experiment [2] (setting [6]).

On to `Cc1nc(Cn2c(=O)n(Cc3cnn(C)c3)c(=O)c3cc(S(=O)(=O)NC4(CF)CC4)ccc32)cs1` [Example 582, N-[1-(Fluoromethyl)cyclopropyl]-3-[(1-methylpyrazol-4-yl)methyl]-1-[(2-methylthiazol-4-yl)methyl]-2,4-dioxo-quinazoline-6-sulfonamide], for which the values for the IC50 in experiment [1] (read-out: PARG Biochem IC50) and in experiment [2] (setting [3]) were 160 nM and 73 nM, respectively.

With `Cn1cc(Cn2c(=O)c3cc(S(=O)(=O)NC4(C(F)F)CC4)ccc3n(CC3CC3)c2=O)cn1` [Example 458, 1-(Cyclopropylmethyl)-N-[1-(difluoromethyl)cyclopropyl]-3-[(1-methylpyrazol-4-yl)methyl]-2,4-dioxo-quinazoline-6-sulfonamide], the IC50 in experiment [1] (read-out: PARG Biochem IC50) amounted to 1070 nM; in experiment [2] (setting [3]), 555 nM.

Regarding `Cc1cc(Cn2nc(OC3COC3)c3ccc(S(=O)(=O)NC4(C)CC4)cc3c2=O)on1` [Example 317], the half-inhibitory concentration (IC50) in experiment [1] (setting [5]) amounted to 487 nM; in experiment [2] (setting [7]) it was 912 nM.

In the case of `Cn1cc(Cn2c(=O)c3cc(S(=O)(=O)NC4(C)CC4)ccc3n(CC3CCO3)c2=O)cn1` (centres unmarked) [Example 343], the results for the IC50 in experiment [1] (setting [5]) and in experiment [2] (setting [6]) were 195 nM and 351 nM, respectively.

For `Cc1cc(Cn2c(=O)n(Cc3cnc(C)s3)c(=O)c3cc(S(=O)(=O)NC4(C#N)CC4)ccc32)on1` [Example 400, N-(1-Cyanocyclopropyl)-1-[(3-methylisoxazol-5-yl)methyl]-3-[(2-methylthiazol-5-yl)methyl]-2,4-dioxo-quinazoline-6-sulfonamide], the IC50 worked out at 27 nM in experiment [1] (read-out: PARG Biochem IC50) and 320 nM in experiment [2] (setting [3]).

With `Cc1cc(Cn2c(=O)c3cc(S(=O)(=O)NC4(C)CC4)ccc3n(CC3(CO)COC3)c2=O)on1` [Example 340], the half-maximal inhibitory concentration (IC50) in experiment [1] (setting [5]) is 389 nM; in experiment [2] (setting [6]) it was 3480 nM.

With `Cn1cc(Cn2c(=O)[nH]c3cc(F)c(S(=O)(=O)NC4(C#N)CC4)cc3c2=O)cn1` [Example 387, N-(1-Cyanocyclopropyl)-7-fluoro-3-[(1-methylpyrazol-4-yl)methyl]-2,4-dioxo-1H-quinazoline-6-sulfonamide], the IC50 in experiment [1] (setting [5]) stood at 452 nM; in experiment [2] (setting [6]), 1520 nM.

On to `Cc1nnc(Cn2c(=O)c3cc(S(=O)(=O)NC4(C)CC4)ccc3n(C)c2=O)s1` [Example 500, 1-Methyl-N-(1-methylcyclopropyl)-3-[(5-methyl-1,3,4-thiadiazol-2-yl)methyl]-2,4-dioxo-quinazoline-6-sulfonamide], for which the IC50 stood at 472 nM in experiment [1] (read-out: PARG Biochem IC50) and 350 nM in experiment [2] (setting [4]).

As to `Cn1cc(Cn2c(=O)c3cc(S(=O)(=O)NC4(C)CC4)ccc3n(CCN3CCOCC3)c2=O)cn1` [Example 271], the half-inhibitory concentration (IC50) in experiment [1] (setting [5]) turned out to be 97 nM; in experiment [2] (setting [7]), 161 nM.

`CCc1nnc(Cn2c(=O)c3cc(S(=O)(=O)NC4(CF)CC4)ccc3n(C)c2=O)s1` [Example 628, 3-[(5-Ethyl-1,3,4-thiadiazol-2-yl)methyl]-N-[1-(fluoromethyl)cyclopropyl]-1-methyl-2,4-dioxo-quinazoline-6-sulfonamide]: the figures for the concentration for half-maximal inhibition (IC50) in experiment [1] (read-out: PARG Biochem IC50) and in experiment [2] (setting [3]) were 2690 nM and 736 nM, respectively.
